The values below come from patent US4235916A, “2-Methylthio-6-fluoro-9-(1-methyl-4-piperidylidene)-thioxanthene and salts thereof, neuroleptic compositions and method of use” (Kefalas A/S, priority 1977, dated 1980).

SMILES strings stand for the structures. Where two headings read alike, the source gives them in different places. Bounds are passed on as bounds.

For orientation: LD50 means the dose expected to kill half of the subjects tested. Low readings indicate greater toxicity, high ones lower toxicity. The term ED50 denotes the midpoint of the dose-response relation. Broadly, the IC50 is the midpoint of a concentration-inhibition curve.

A short description of data set [1]: Determination of LD50 (acute toxicity, i.p.). It is filed as in vivo, Mice, male. The method, then:
Determination of LD50 (mg/kg i.p.)
Mice, male, weighing from 18-25 g, fasted from 4 p.m. the day before test day.
Four treated groups and one control group, each of 4 mice, are used.
The test substance is suspended in methyl cellulose 0.5% and injected intraperitoneally. The animals are placed in Macrolon cages type II. […] Furthermore the results are recorded according to the punching instructions as fractions: 0/4, 1/4, 2/4, 3/4 and 4/4 where 0, 1, 2, 3 and 4 indicate the number of deaths after the dose in question.

For data set [2], the system named is methylphenidate. As to the kind of experiment: Methylphenidate antagonism. It is filed as in vivo, male. The note with it: Mus musculus, ip, mice, i.p. The method, then:
Methylphenidate antagonism (ED50 mg/kg i.p.)
Perspex observation cages without bottom and lid, consisting of 5 sections each measuring 12×25×30 cm. White corrugated paper. Mice, male, 18-25 g.
3×2 mice are used for each dose level. Two or 24 hours after injection of test substance, methylphenidate, 60 mg/kg, is injected s.c.
After administration of methylphenidate the mice are placed in the observation cages, 2 in each cage, where they remain for exactly 1 hour. The cages are placed on corrugated paper, the corrugations facing upwards. It is examined whether the mice have been biting the corrugated paper or not. […] If one or more of the control pairs have not been biting, the test has to be repeated on a new set of mice.
The result is stated in fractions: 0/3, 1/3, 2/3 and 3/3 where 0, 1, 2 and 3 are the number of pairs which have not been biting on receipt of the dose in question.

For data set [3], the system named is amphetamine. The experiment in a line: Amphetamine antagonism. The note with it: Rattus norvegicus, ip, 2 h; rats, i.p., amphetamine sulphate 13.6 mg/kg i.v. two hours later; read-out: Amphetamine antag. (ED50). It is filed as in vivo, Rats, male. The method, then: Amphetamine antagonism (ED50 mg/kg i.p.)
Perspex observation cages without bottom and lid, consisting of 5 sections each measuring 12×25×30 cm.
The test substance is given i.p. in a reasonable dose based on the determined LD50. Two hours later an intravenous injection of amphetamine sulphate 13.6 mg/kg (~10 mg/kg amphetamine base) is given, after which the rats are placed individually in the cages. The cages are placed on white corrugated paper. Five rats are used for each dose level. Observations are made after 55 minutes and 65 minutes--observation time: 1 minute. The animals are observed for stereotypy (movements of the head, compulsive gnawing). […] If the compound has full antagonistic effect another group of rats is used at a lower dose. […] The result is stated as fractions: 0/5, 1/5, 2/5, 3/5, 4/5 and 5/5, where 0, 1, 2, 3, 4 and 5 indicate the number of rats which have not shown stereotypy at the dose in question. The results are calculated as ED50 in mg/kg.

Data set [4] is described as follows: Catalepsy wire mesh, rat, max. The data set is classed as in vivo, male. Particulars: rats. The method, then: Catalepsy wire mesh, rat, max. (ED50 mg/kg s.c.)
A vertical wire netting (50 cm×49 cm). The meshes (openings) of the netting are square (1 cm×1 cm). The wire diameter is 2 mm.
The animals are labeled and used in groups of five. The test substance is injected subcutaneously (s.c.) (5 ml/kg) at 4 dose levels selected from the fixed dose scale.
The animals are placed in the middle of the vertical wire netting 60, 120, 180, 240, 300 and 360 minutes after injection of the test compound. The animals are considered cetaleptic when they remain immobile during a period of 15 seconds. This cataleptic reaction is designated +. If the rats are "atonic" and passively slides down the wire mesh they are considered not cataleptic. If the animals climb up and down the wire mesh they are nor cataleptic. In both situations the designation - is used.

In data set [5] the test system is physostigmine. As to the kind of experiment: Physostigmine antagonism. The data set is classed as in vivo, male. Particulars: Mus musculus, ip, 0.5 h; mice, i.p., physostigmine 2 mg/kg i.p. thirty minutes after test substance; survivors after 60 minutes; read-out: Physostigmine antag. (ED50). As to the method:
Physostigmine antagonism (ED50 mg/kg i.p.)
Scopolamine bromide 0.04 mg/ml or 0.1 mg/ml.
Physostigmine salicylate 0.2 mg/ml.
Five mice are used for each dose level. One group, serving as positive control, is injected with scopolamine 0.4 mg/kg i.p. Thirty minutes after i.p. administration of test substance (or scopolamine), physostigmine 2 mg/kg, is injected i.p. This dose of physostigmine induces tremor with salivation, clonic convulsions, coma and death. After 60 minutes the number of survivors are counted.
The results are recorded in fractions: 0/5, 1/5, 2/5, 3/5, 4/5 and 5/5 where 0, 1, 2, 3, 4 and 5 inducate the number of animals in which the test compound has prevented the occurrence of death.

The target in data set [6] is Muscarinic. The experiment in a line: Muscarinic affinity binding (3H-PrBCM, whole brain P2 fraction). Also noted: species or system Rats. The note with it: displacement of specific 3H-PrBCM binding by 50%; rat brain, pH 7.4, 30° C.; read-out: Muscarine affinity (IC50). The method, then:
Muscarinic affinity binding
Sodium thiosulphate 10 mM (2.48 g/1000 ml) ^3 H-PrBCM (N-2'-chloroethyl-N-[2", 3"-^3 H2 ] propyl-2-aminoethylbenzilate,spec. act. ~28 Ci/mM).
A rat is killed by a blow on the head and exsanguinated. The whole brain is removed and homogenized in 10 volumes of ice cold 0.32 M sucrose with a hand homogenizer. The homogenate is centrifuged at 600 g for 10 minutes (4° C.) and the pellet discarded. The supernatant is then centrifuged at 25000 g for 55 minutes (4° C.). The pellet fraction (P2) is resuspended in the same volume of 0.32 M sucrose as previously used and stored on ice.
The aziridinium ion of ^3 H-propylbenzilyllcholine mustard (^3 H-PrBCM) is prepared by cyclization at a concentration of 130 nM in 15 mM Na-phosphate buffer (pH 7.4) for 50 minutes at 20° C. The reaction is terminated by addition of 100 volumes of ice cold buffer.
The incubation is continued for 15 minutes and stopped by addition of 20 ml 100 mM phosphate buffer containing 10 mM sodium thiosulphate. The samples are filtered through Whatman GF/C glass fiber filters and washed with 30 ml ice cold 100 mM phosphate buffer. The filters with synaptosomes are transferred to scintillation vials and the radio-activity measured by liquid scintillation counting after addition of 10 ml Instal-Gel (Packard Inst.). All experiments are performed in triplicate.
Specific ^3 H-PrBCM binding is defined as the total binding minus the binding in the presence of 20 μM atropine.

Data set [7] deals with apomorphine. The experiment in a line: Apomorphine vomit. It is filed as in vivo, Adult Beagle dogs. Particulars: Canis lupus familiaris, sc, 4 h; Beagle dogs, s.c., four hours before apomorphine 25 μg/kg i.v.; calculated ED50 approximate; read-out: Apomorph. Vomit (ED50). As to the method:
Adult Beagle dogs of either sex, housed individually in kennels or in cages.
2-4 dogs are used per dose level.
The test compound is injected subcutanelusly in the back of the neck four hours before apomorphine, which is given intravenously in a dose of 25 μg/kg (volume 0.1 ml/kg).
The results are given as fractions, i.e. 0/2, 1/2 or 2/2, stating the number of dogs protected against vomiting over to the number of dogs. On account of the small number of animals the calculated ED50 should be considered approximate.

The nature of data set [8]: Neuroleptic and pharmacological profile evaluated by standard test methods (overall statements). The data set is classed as in vivo. The text has this: The pharmacological testing of 2-methylthio-6-fluoro-9-(1-methyl-4-piperidylidene)-thioxanthene, in the following called Lu 14-089 for short, and its non-toxic acid addition salts consisted of standard and reliable tests.

Data set [9] in a line: Administration to human beings. The note with it: in vivo. From the text:
Lu 14-089 as well as the non-toxic acid addition salts thereof may be administered to animals such as dogs, cats, horses sheeps or the like, including human beings, both orally and parenterally, and may be used for example in the form of tablets capsules, powders, syrups, suppositories, or in the form of the usual sterile solutions for injection.

For the compound `CSc1ccc2c(c1)C(=C1CCN(C)CC1)c1ccc(F)cc1S2` [Lu 14-089, 2-methylthio-6-fluoro-9-(1-methyl-4-piperidylidene)-thioxanthene], the “acute toxicity, in words” value in data set [1] (compared with Lu 14-089 or related thioxanthene derivatives) is reported as “low acute toxicity compared with related thioxanthene derivatives”. This compound also returned an LD50 at 24 h in [1] (mouse, in vivo, ip, mice, i.p., deaths after 24 hours) greater than 320 mg/kg. In addition, the median effective dose (ED50) is 0.1 mg/kg in data set [2] (methylphenidate 60 mg/kg s.c. 2 h after test substance, read-out: Methylphenidate antag. 2h (ED50)); 14 mg/kg in data set [2] (methylphenidate 60 mg/kg s.c. 24 h after test substance, read-out: Methylphenidate antag. 24h (ED50)); 0.74 mg/kg in [3]; 6.3 mg/kg in data set [4] (rat, in vivo, sc, wire mesh, maximum effect within first 6 hours); 7.2 mg/kg in [5]; 0.014 mg/kg in data set [7]. Further, the “Ratio Catalep./Amphetam. antag.” value in data set [4] (catalepsy ED50 (s.c.) / amphetamine antagonism ED50 (i.p.)) is on record as 8.5. For the same compound, the IC50 in [6] turned out to be 14 nM. Also, in data set [8] (compound and its non-toxic acid addition salts), the “neuroleptic effects, in words” value was “strong and relatively longlasting neuroleptic effects”. Besides, the “anticholinergic effects, in words” value in data set [8] (in vivo) is reported as “strong anticholinergic effects”. Also, the “extrapyramidal side effects, in words” value in [8] (pharmacological profile, standard test methods) was “low extrapyrimidal side effects”. Moreover, the “Results upon administration to human beings” value in [9] is on record as “very gratifying”.
